Assay results published in the NIST ThermoML archive (doi:10.1016/j.jct.2008.04.008).

Test: mn = molality of the nth substance listed, in mol/kg
Details: Liquid; for speed of sound: Pulse-echo method

[Na+].c1ccc([B-](c2ccccc2)(c2ccccc2)c2ccccc2)cc1 [sodium tetraphenylboron] + CO
Details	mass density, 283.15 K [kg/m3]	mass density, 288.15 K [kg/m3]	mass density, 293.15 K [kg/m3]	mass density, 298.15 K [kg/m3]	mass density, 303.15 K [kg/m3]	mass density, 308.15 K [kg/m3]	mass density, 313.15 K [kg/m3]	speed of sound, 298.15 K [m/s]
m1 = 0.02864	803.855	799.183	794.505	789.813	785.107	780.377	775.618	–
m1 = 0.03742	804.851	800.185	795.511	790.825	786.118	781.392	776.646	–
m1 = 0.04715	805.936	801.274	796.607	791.928	787.23	782.507	–	–
m1 = 0.05653	806.979	802.323	797.659	792.985	788.298	783.585	778.847	–
m1 = 0.06567	807.991	803.338	798.679	794.015	789.33	784.622	779.888	1114.1
m1 = 0.07566	809.099	804.455	799.8	795.14	790.46	785.759	781.031	1115.7
m1 = 0.09526	811.246	806.611	801.967	797.318	792.652	787.962	783.246	1119
m1 = 0.1146	813.35	808.726	804.095	799.453	794.791	790.107	785.409	1122.4
m1 = 0.1339	815.434	810.82	806.2	801.569	796.921	792.253	787.56	1125.7
m1 = 0.1529	817.425	812.819	808.212	803.59	798.952	794.294	789.61	1128.3
m1 = 0.173	819.579	814.984	810.383	805.772	801.145	796.5	791.829	1131.7
m1 = 0.1931	821.677	817.092	812.503	807.899	803.28	798.648	793.987	1135.5

[Br-].c1ccc([P+](c2ccccc2)(c2ccccc2)c2ccccc2)cc1 [tetraphenylphosphorane bromide] + CO
Details	mass density, 283.15 K [kg/m3]	mass density, 288.15 K [kg/m3]	mass density, 293.15 K [kg/m3]	mass density, 298.15 K [kg/m3]	mass density, 303.15 K [kg/m3]	mass density, 308.15 K [kg/m3]	mass density, 313.15 K [kg/m3]	speed of sound, 298.15 K [m/s]
m1 = 0.0261	804.518	799.837	795.15	790.45	785.734	780.996	776.229	1106.5
m1 = 0.03452	805.776	801.095	796.408	791.716	787.003	782.267	777.504	1107.7
m1 = 0.04277	807.01	802.333	797.652	792.957	788.242	783.515	778.757	1109.1
m1 = 0.05089	808.208	803.532	798.856	794.167	789.459	784.728	779.972	1110.1
m1 = 0.05974	–	–	–	–	–	–	–	1111.4
m1 = 0.06826	810.754	806.084	801.412	796.727	792.025	787.301	782.553	1112.8
m1 = 0.08592	813.321	808.661	803.994	799.314	794.618	789.901	785.158	1115.3
m1 = 0.1039	815.894	811.236	806.575	801.901	797.21	792.499	787.763	1117.8
m1 = 0.1212	818.357	813.704	809.048	804.378	799.693	794.987	790.256	1119.9
m1 = 0.1384	820.799	816.147	811.492	806.831	802.152	797.452	792.728	1122.4
m1 = 0.1565	823.304	818.656	814.011	809.353	804.679	799.985	795.267	1124.7
m1 = 0.1747	825.843	821.2	816.556	811.905	807.237	802.548	797.837	1127
